Key:
[1] = target: FPTase (K-Ras substrate) (Homo sapiens, UniProt P49354+P49356); test: in vitro FTase Inhibition Assay, K-Ras as substrate for farnesylation; format: biochemical; details: K-Ras used as substrate for farnesylation
Description: (§1) The ability of the compounds of this invention to inhibit FPTase was evaluated in the standard pharmacological in vitro test procedures described below.
(§2) Enzyme test procedure: FPTase inhibition in vitro assay was performed according to James, G. L., Brown, M. S., and Goldstein, J. L., Methods in Enzymology, 1995, 255, 38-46; and Garcia, M. A., et al., J. Biol. Chem., 1993, 268, 18415-18420.
(§3) • Materials—Purified FPTase (Moomaw, J. F. and Casey, P. J., J. Biol. Chem., 1992, 267, 17438-17443), purified His6-Ras, inhibitor compounds at 10 mg/ml or 10 mM in 100% DMSO, ^3H-FPP (50,000 dpm/pmol) Amersham, TCA/SDS (6%/2%), TCA (6%), Glass fiber filters (0.22-0.45 m), vacuum manifold or 96 well filtration plates. • Methods—1. Dilute FPTase inhibitors from stock solutions to 2.5× in 2.5% DMSO, 10 mM DTT, 0.5% octyl-B-glucoside. 2. Solution #1 is added to FPTase reaction in a volume of […]. 3. Standard reaction mix, […], contains 50 mM Tris (7.5),[…], 3 mM MgCl2, 20 mM KCl, 5 mM DTT, 0.2% octyl-B-glucoside, 1% DMSO, […] His6-Ras, 10 ng FPTase, and various concentrations of FPTase inhibitors. 4. Incubate for 30-90 min at 25° C. 5. […] Add scintillant to filters, measure ^3H-FPP incorporation into Ras protein. • Analysis of Results—Percent inhibition by test compounds is determined by the following: […]. […]

[2] = target: FPTase (H-Ras substrate) (Homo sapiens, UniProt P49354+P49356); test: in vitro FTase Inhibition Assay, H-Ras as substrate for farnesylation; format: biochemical; details: H-Ras used as substrate for farnesylation
Description: as §1, §2, §3

IC50 [1] [µM] | IC50 [2] [µM] | melting point [°C] | Structure (SMILES)
> 1 | 0.14 | 160 to 162 | COc1ccc(S(=O)(=O)C2(CCCC#Cc3ccc(Cl)cc3)CC(=O)NC2=O)cc1 (stereo not shown) [3-[5-(4-Chlorophenyl)pent-4-ynyl]-3-(4-methoxybenzenesulfonyl)-pyrrolidine-2,5-dione]
– | 6.5 | – | Cc1ccc(S(=O)(=O)C2(CC#Cc3ccc(Cl)cc3)CC(=O)NC2=O)cc1 (stereo not shown) [3-[-3-(4-Chlorophenyl)prop-2-ynyl]-3-(toluene-4-sulfonyl)pyrrolidine-2,5-dione]
